Assay results from PubChem BioAssay (NCI).
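A five-concentration, 48-hour dose response in 96-well plates underlies each endpoint, interpolated linearly between surrounding concentrations. GI50: concentration for 50% inhibition of growth. TGI: total growth inhibition.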

Columns and labels:
Test in all cases: NCI tumour cell line growth inhibition, 48 h
[1] = test system: LOX IMVI melanoma
[2] = test system: MOLT-4 leukemia
[3] = test system: HCC-2998 colon
[4] = test system: SF-539 CNS
[5] = test system: SK-MEL-2 melanoma
[6] = test system: EKVX NSCLC
[7] = test system: COLO 205 colon
[8] = test system: U251 CNS
[9] = test system: BT-549 breast
[10] = test system: PC-3 prostate

Row | SMILES | TGI [1] | TGI [2] | TGI [3] | TGI [4] | TGI [5] | TGI [6] | TGI [7] | TGI [8] | TGI [9] | TGI [10] | GI50 [1] | GI50 [3] | GI50 [4] | GI50 [5] | GI50 [6] | GI50 [7] | GI50 [8]
1 | CC(O)C(O)C(N)CC=O (configuration not stated) | > 500 µM | > 500 µM | > 500 µM | > 500 µM | > 500 µM | > 500 µM | > 500 µM | > 500 µM |  |  |  |  |  |  |  |  | 
2 | COc1ccc(SC(C)(SC)c2ccccn2)c(OC)n1 (configuration not stated) | > 100 µM | > 100 µM | > 100 µM | > 100 µM | > 100 µM | > 100 µM | > 100 µM | > 100 µM | > 100 µM | > 100 µM |  |  |  |  |  |  | 
3 | COc1cccc(-c2nc3c(C(=O)NCCN(C)C)cccc3[nH]2)c1 | 34.9 µM | 24.4 µM | 30.8 µM | 41.4 µM | 34.4 µM | 97.5 µM | 23.1 µM | > 61.6 µM |  |  |  |  |  |  |  |  | 
4 | Nc1nc(SCc2ccccc2)c2ncn(Cc3ccccc3)c2n1 | > 100 µM | > 100 µM | > 100 µM | > 100 µM | > 100 µM | > 100 µM | > 100 µM | > 100 µM | > 100 µM | > 100 µM |  |  |  |  |  |  | 
5 | C[N+]1(C)CCC(C#N)(c2ccccc2)CC1 |  | > 100 µM | > 100 µM |  |  | > 100 µM | > 100 µM | > 100 µM |  |  |  |  |  |  |  |  | 
6 | O=S(=O)(c1ccc(I)cc1)N(c1ccccc1)S(=O)(=O)C(F)(F)C(F)(F)C(F)(F)C(F)(F)F | > 100 µM | > 100 µM |  | > 100 µM | 90.6 µM | > 100 µM | > 100 µM | > 100 µM | > 100 µM | > 100 µM |  |  |  |  |  |  | 
7 | [C-]#[O+].[C-]#[O+].[Ir].[O-]c1cccc2cccnc12 | > 100 µM |  | > 100 µM | > 100 µM | > 100 µM | > 100 µM | > 100 µM | > 100 µM |  |  | > 100 µM | > 100 µM | > 100 µM | > 100 µM | > 100 µM | > 100 µM | > 100 µM
8 | C=C1C(=O)OC2C1C(OC(=O)/C(C)=C/C)CC1(C)C(=O)CCC(=C)C21 (configuration not stated) | 13.2 µM | > 26.5 µM | 26.6 µM | 32.1 µM | 24.2 µM | 33.8 µM | 20.3 µM | > 54.4 µM | 18.7 µM | 22.9 µM |  |  |  |  |  |  | 
9 | CC1(C)COC(/C=C/C2=NC(C)(C)CO2)=N1 | 16.7 µM | 36.1 µM |  | 51.7 µM | 82.9 µM | 41.8 µM | 28.6 µM | 64.3 µM | 49.8 µM | 51.7 µM |  |  |  |  |  |  | 
10 | O=C1c2ccccc2-c2ccc(N=[N+]([O-])c3ccc4c(c3)C(=O)c3ccccc3-4)cc21 | > 100 µM | > 100 µM | > 100 µM |  | > 100 µM | > 100 µM | > 100 µM | > 100 µM | > 100 µM | > 100 µM |  |  |  |  |  |  | 
11 | O=C(O)C1CC(c2ccccc2)=NN1c1ccccc1 (configuration not stated) | > 100 µM | > 100 µM | 57.4 µM | > 100 µM | > 100 µM | 88.9 µM | > 100 µM | > 100 µM | > 100 µM | > 100 µM |  |  |  |  |  |  | 
